According to PMC5394417, “Investigating the molecular mechanism of positive and negative allosteric modulators in the calcium-sensing receptor dimer” (Scientific Reports, 2017):

Biological target: T1, HA-F821A CaSR mutant (Rattus norvegicus, UniProt P48442, F821A)
T1 construct: mGluR5 signal peptide (N); expressed in transfected cells; host or cells: HEK293T
T1 sequence (P48442 20-1079 F821A): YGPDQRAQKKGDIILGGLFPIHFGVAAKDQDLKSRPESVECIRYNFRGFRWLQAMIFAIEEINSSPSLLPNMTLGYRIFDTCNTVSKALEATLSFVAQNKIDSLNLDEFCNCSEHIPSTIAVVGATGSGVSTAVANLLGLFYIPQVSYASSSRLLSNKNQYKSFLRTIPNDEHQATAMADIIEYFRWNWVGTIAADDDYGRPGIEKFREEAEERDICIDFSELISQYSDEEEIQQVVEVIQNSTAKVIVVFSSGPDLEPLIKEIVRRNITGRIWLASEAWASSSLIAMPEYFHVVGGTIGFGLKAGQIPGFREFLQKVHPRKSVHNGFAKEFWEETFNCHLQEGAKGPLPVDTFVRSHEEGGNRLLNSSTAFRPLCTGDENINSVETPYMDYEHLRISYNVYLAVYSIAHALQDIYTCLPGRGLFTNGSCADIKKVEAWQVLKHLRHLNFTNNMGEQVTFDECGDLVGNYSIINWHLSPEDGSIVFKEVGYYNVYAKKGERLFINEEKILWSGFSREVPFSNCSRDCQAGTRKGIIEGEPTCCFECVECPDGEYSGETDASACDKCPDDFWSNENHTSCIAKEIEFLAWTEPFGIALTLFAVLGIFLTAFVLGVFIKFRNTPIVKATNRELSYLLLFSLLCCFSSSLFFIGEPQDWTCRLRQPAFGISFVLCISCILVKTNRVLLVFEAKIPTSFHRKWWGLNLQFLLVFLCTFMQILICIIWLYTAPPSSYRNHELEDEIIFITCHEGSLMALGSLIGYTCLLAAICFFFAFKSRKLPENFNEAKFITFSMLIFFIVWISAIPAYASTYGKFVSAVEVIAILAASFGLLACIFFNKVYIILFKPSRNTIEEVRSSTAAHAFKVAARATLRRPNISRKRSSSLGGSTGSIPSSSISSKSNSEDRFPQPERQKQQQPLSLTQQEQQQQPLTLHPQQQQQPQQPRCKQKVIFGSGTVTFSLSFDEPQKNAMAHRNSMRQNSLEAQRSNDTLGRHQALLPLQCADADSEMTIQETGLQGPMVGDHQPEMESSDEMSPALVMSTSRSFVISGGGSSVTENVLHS
Assay: IP-One assay, HEK293T transiently transfected
Format: cell-based

EC50 (Ca^2+ alone): 2.35 mM
pEC50 ± S.E.M. (Ca^2+ alone): 2.63 ± 0.02
Max ± S.E.M. (Ca^2+ alone, normalized to maximum response of WT CaSR): 87 ± 4.3%
EC50 (Ca^2+ with 1 μM NPS R-568): 1.92 mM
pEC50 ± S.E.M. (Ca^2+ with 1 μM NPS R-568): 2.72 ± 0.01
Max ± S.E.M. (Ca^2+ with 1 μM NPS R-568, normalized to maximum response with Ca^2+ alone for the construct): 110 ± 14%
EC50 (Ca^2+ with 5 μM NPS 2143): 5.72 mM
pEC50 ± S.E.M. (Ca^2+ with 5 μM NPS 2143): 2.25 ± 0.05
Max ± S.E.M. (Ca^2+ with 5 μM NPS 2143, normalized to maximum response with Ca^2+ alone for the construct): 51 ± 8.0%
Compound: [Ca+2] [Ca^2+]
